These are literature values, as cited in article PMC7904743, “WIDOCK: a reactive docking protocol for virtual screening of covalent inhibitors” (Journal of Computer-Aided Molecular Design, 2021).

Like-named read-outs stand apart in the source and are kept apart here.

The conditions of series [1]: thiol reactivity, cited from earlier work.
In the next series the test system is NUDT7. Conditions: protein labeling at 200 μM; experimental actives if % labeling higher than 50%; cited from earlier work.
Another series relates to OTUB2. Conditions: OTUB2 protein labeling; experimental actives if % labeling higher than 50%; cited from earlier work.
Where [2] appears, read: natural log of average kinetic rate constant.
[3] abbreviates: natural log of average rate constant.

Regarding `CN(Cc1cnn(C)c1)C(=O)CCl` [PCM-0102899, CN(Cc1cnn(C)c1)C(=O)CCl], the “ln(avg k)” value in series [1] (setting [2]) and in series [1] (setting [3]) was -15.596 throughout. The NUDT7 % labeling in the series on NUDT7 is recorded as 8%. Further, the OTUB2 % labeling in the series with OTUB2 is 26%.
For `CCN(C(=O)CCl)c1ccc(F)cc1` [PCM-0102900, CCN(C(=O)CCl)c1ccc(F)cc1], the “ln(avg k)” value in series [1] (setting [2]) and in series [1] (setting [3]) was -15.837 throughout. Also, the NUDT7 % labeling in the series with NUDT7 is 29%. For the same molecule, in the series with OTUB2, the OTUB2 % labeling is given as 0%.
Take `NS(=O)(=O)c1ccccc1NC(=O)CCl` [PCM-0102903, NS(=O)(=O)c1ccccc1NC(=O)CCl]: the “ln(avg k)” value in series [1] (setting [2]) and in series [1] (setting [3]) was -14.783 each time. In addition, the NUDT7 % labeling with NUDT7 was 29%. In the series with OTUB2, the OTUB2 % labeling is recorded as 14%.
For `COCC(=O)NC(=O)CCl` [PCM-0102904, COCC(=O)NC(=O)CCl], the “ln(avg k)” value in series [1] (setting [2]) and in series [1] (setting [3]) was -18.669 in each case. Also, the NUDT7 % labeling in the series with NUDT7 is listed as 0%. The OTUB2 % labeling with OTUB2 is given as 0%.
As for `O=C(CCl)N1CCN(c2ccc(F)cc2)CC1` [PCM-0102905, O=C(CCl)N1CCN(c2ccc(F)cc2)CC1], the “ln(avg k)” value in series [1] (setting [2]) and in series [1] (setting [3]) was -15.525 each time. Besides, in the series with NUDT7, the NUDT7 % labeling was 10%. The OTUB2 % labeling in the series with OTUB2 is reported as 7%.
On to `COC(=O)CNC(=O)CCl` [PCM-0102906, COC(=O)CNC(=O)CCl], for which the “ln(avg k)” value in series [1] (setting [2]) and in series [1] (setting [3]) was -17.517 each time. In addition, in the series on NUDT7, the NUDT7 % labeling was 0%. In addition, the OTUB2 % labeling in the series on OTUB2 is on record as 6%.
As for `O=C(CCl)NC(=O)Nc1ccc2c(c1)OCCCO2` [PCM-0102910, O=C(CCl)NC(=O)Nc1ccc2c(c1)OCCCO2], the “ln(avg k)” value in series [1] (setting [2]) and in series [1] (setting [3]) was -16.097 throughout. The NUDT7 % labeling in the series with NUDT7 is on record as 0%. In addition, the OTUB2 % labeling with OTUB2 was 0%.
With `COC(=O)c1cc(Cl)cc(Cl)c1NC(=O)CCl` [PCM-0102912, COC(=O)c1cc(Cl)cc(Cl)c1NC(=O)CCl], the “ln(avg k)” value in series [1] (setting [2]) and in series [1] (setting [3]) was -17.100 each time. The NUDT7 % labeling with NUDT7 is on record as 17%. Further, the OTUB2 % labeling in the series on OTUB2 is given as 0%.
On to `CC1CCC(NC(=O)CCl)CC1` (centres unmarked) [PCM-0102913, CC1CCC(NC(=O)CCl)CC1], for which the “ln(avg k)” value in series [1] (setting [2]) and in series [1] (setting [3]) was -16.529 in each case. The NUDT7 % labeling in the series on NUDT7 was 0%. In addition, in the series on OTUB2, the OTUB2 % labeling is on record as 8%.
With `O=C(CCl)Nc1ccc(Cl)cc1Cl` [PCM-0102914, O=C(CCl)Nc1ccc(Cl)cc1Cl], the “ln(avg k)” value in series [1] (setting [2]) and in series [1] (setting [3]) was -16.384 throughout. Further, the NUDT7 % labeling with NUDT7 is reported as 22%. In addition, the OTUB2 % labeling in the series on OTUB2 is given as 14%.
As to `O=C(CCl)Nc1ccc(N2CCCC2=O)cc1` [PCM-0102915, O=C(CCl)Nc1ccc(N2CCCC2=O)cc1], the “ln(avg k)” value in series [1] (setting [2]) and in series [1] (setting [3]) was -15.819 in each case. Moreover, the NUDT7 % labeling in the series on NUDT7 is reported as 0%. In addition, the OTUB2 % labeling with OTUB2 is 49%.
In the case of `CN(C(=O)CCl)C1(C#N)CCCCC1` [PCM-0102916, CN(C(=O)CCl)C1(C#N)CCCCC1], the “ln(avg k)” value in series [1] (setting [2]) and in series [1] (setting [3]) was -15.114 throughout. For the same molecule, the NUDT7 % labeling in the series on NUDT7 was 0%. For the same molecule, the OTUB2 % labeling with OTUB2 is recorded as 0%.
With `CC(=O)c1oc2ccccc2c1NC(=O)CCl` [PCM-0102918, CC(=O)c1oc2ccccc2c1NC(=O)CCl], the “ln(avg k)” value in series [1] (setting [2]) and in series [1] (setting [3]) was -15.842 throughout. The NUDT7 % labeling in the series with NUDT7 is 39%. The OTUB2 % labeling in the series on OTUB2 is listed as 0%.
As for `O=C(CCl)N1CCN(Cc2ccccc2)C1=O` [PCM-0102919, O=C(CCl)N1CCN(Cc2ccccc2)C1=O], the “ln(avg k)” value in series [1] (setting [2]) and in series [1] (setting [3]) was -18.275 throughout. Further, in the series with NUDT7, the NUDT7 % labeling was 0%. Also, the OTUB2 % labeling with OTUB2 is listed as 10%.
For `O=C(CCl)N1CCC(c2nc3ccccc3o2)CC1` [PCM-0102920, O=C(CCl)N1CCC(c2nc3ccccc3o2)CC1], the “ln(avg k)” value in series [1] (setting [2]) and in series [1] (setting [3]) was -15.428 throughout. In the series with NUDT7, the NUDT7 % labeling was 0%. In addition, the OTUB2 % labeling in the series with OTUB2 is 0%.
As for `CN1CCN(C(=O)CCl)CC1` [PCM-0102921, CN1CCN(C(=O)CCl)CC1], the “ln(avg k)” value in series [1] (setting [2]) and in series [1] (setting [3]) was -17.315 each time. In addition, in the series on NUDT7, the NUDT7 % labeling was 0%. In addition, in the series with OTUB2, the OTUB2 % labeling is recorded as 0%.
Consider `CC(C)(C)OC(=O)N1CCCC(CNC(=O)CCl)C1` (centres unmarked) [PCM-0102923, CC(C)(C)OC(=O)N1CCCC(CNC(=O)CCl)C1], for which the “ln(avg k)” value in series [1] (setting [2]) and in series [1] (setting [3]) was -16.613 in each case. Besides, the NUDT7 % labeling with NUDT7 was 0%. In the series with OTUB2, the OTUB2 % labeling is 20%.
Regarding `O=C(CCl)Nc1ccc(Br)cc1F` [PCM-0102926, O=C(CCl)Nc1ccc(Br)cc1F], the “ln(avg k)” value in series [1] (setting [2]) and in series [1] (setting [3]) was -16.464 throughout. Besides, the NUDT7 % labeling in the series on NUDT7 is given as 17%. Moreover, the OTUB2 % labeling in the series with OTUB2 is on record as 20%.
Turning to `CC(C)c1nnc(NC(=O)CCl)s1` [PCM-0102928, CC(C)c1nnc(NC(=O)CCl)s1], the “ln(avg k)” value in series [1] (setting [2]) and in series [1] (setting [3]) was -15.769 throughout. For the same molecule, the NUDT7 % labeling with NUDT7 is listed as 4%. Besides, the OTUB2 % labeling in the series on OTUB2 is reported as 0%.
For `COc1ccc(C2=CCN(C(=O)CCl)CC2)cc1` [PCM-0102929, COc1ccc(C2=CCN(C(=O)CCl)CC2)cc1], the “ln(avg k)” value in series [1] (setting [2]) and in series [1] (setting [3]) was -16.042 each time. For the same molecule, the NUDT7 % labeling with NUDT7 was 45%. The OTUB2 % labeling in the series on OTUB2 is 0%.
On to `O=C(CCl)Nc1ccncc1` [PCM-0102930, O=C(CCl)Nc1ccncc1], for which the “ln(avg k)” value in series [1] (setting [2]) and in series [1] (setting [3]) was -16.813 each time. Further, the NUDT7 % labeling with NUDT7 is recorded as 0%. Moreover, the OTUB2 % labeling in the series on OTUB2 is reported as 0%.
`O=C(CCl)NC1CCN(C(=O)C2CCCCC2)CC1` [PCM-0102931, O=C(CCl)NC1CCN(C(=O)C2CCCCC2)CC1]: the “ln(avg k)” value in series [1] (setting [2]) and in series [1] (setting [3]) was -16.253 throughout. Also, in the series on NUDT7, the NUDT7 % labeling is 0%. For the same molecule, the OTUB2 % labeling with OTUB2 is given as 9%.
As for `CC(=O)N1CCC(NC(=O)CCl)CC1` [PCM-0102932, CC(=O)N1CCC(NC(=O)CCl)CC1], the “ln(avg k)” value in series [1] (setting [2]) and in series [1] (setting [3]) was -16.417 each time. For the same molecule, the NUDT7 % labeling in the series on NUDT7 was 0%. Further, the OTUB2 % labeling in the series on OTUB2 is 7%.
With `CC1CCCN(C(=O)C2CCN(C(=O)CCl)CC2)C1` (centres unmarked) [PCM-0102933, CC1CCCN(C(=O)C2CCN(C(=O)CCl)CC2)C1], the “ln(avg k)” value in series [1] (setting [2]) and in series [1] (setting [3]) was -15.328 in each case. Also, the NUDT7 % labeling in the series on NUDT7 is listed as 0%. Besides, in the series with OTUB2, the OTUB2 % labeling is reported as 0%.
As to `O=C(CCl)NC1(c2ccccc2)CCC1` [PCM-0102935, O=C(CCl)NC1(c2ccccc2)CCC1], the “ln(avg k)” value in series [1] (setting [2]) and in series [1] (setting [3]) was -16.140 in each case. For the same molecule, the NUDT7 % labeling with NUDT7 is 29%. The OTUB2 % labeling in the series on OTUB2 is given as 0%.
`N#Cc1cccc(CNC(=O)CCl)c1` [PCM-0102936, N#Cc1cccc(CNC(=O)CCl)c1]: the “ln(avg k)” value in series [1] (setting [2]) and in series [1] (setting [3]) was -16.667 in each case. Besides, in the series with NUDT7, the NUDT7 % labeling is on record as 0%. Also, the OTUB2 % labeling in the series on OTUB2 is recorded as 32%.
